Results on three molecules are retold here after US5958445A, “Oral Formulations of S(+)-etodolac” (priority 1998, dated 1999).

≈ marks a conversion by molar mass, not a printed value. Like-named read-outs stand apart in the source and are kept apart here.

The nature of one data set: physchem. Format: physicochemical. On the procedure:
Equilibrium solubility data for S(+)-etodolac based on pH was determined by placing excess amounts of the S(+)-etodolac and about 5 mL of the dissolution medium in screw-capped vials which were covered with aluminum foil and then tumbled in a 25° C. water bath for 3 days. Slurries were filtered through […] Gelman disposable filters. Filtrates were appropriately diluted with their dissolution medium and analyzed by a Cary 210 UV-VIS spectrophotometer at 278 nm.
The dissolution media used for the pH-solubility profile and ionic strength effect were HCl, HAc--NaAc, KH2 PO4 --NaOH, K2 CO3 --KHCO3, H3 BO3 --NaOH, and NaOH solutions, where the ionic strengths of media were adjusted to be 0.1 by the addition of NaCl. Those solvent systems used for cosolvent solubilization were various ratios of PEG 400, ethanol, triethanolamine (TEA), and dimethylacetamide (DMA) to aqueous solutions. pH values of the slurries were measured before and after equilibrium.

Data set [1] can be described thus: Solubility in words (Physicians' Desk Reference and description). Format: physicochemical. As to conditions: acid form.
For data set [2] the following is noted: J. Med. Chem. 1983, 26, 1778-1780; cited from earlier work.
For data set [3] the following is noted: in vivo; cited from earlier work.
For data set [4] the following is noted: Physicians' Desk Reference, 1995; cited from earlier work.
In another data set the test system is acute pain. As to conditions: cited from earlier work.
The subject of another data set is animal models. To be noted: in vivo; cited from earlier work.
Where [5] appears, read: 20% ethanol, organic solvent or mixture.
Setting [6] is: 20% peg 400, organic solvent or mixture.
Where [7] appears, read: 40% ethanol, organic solvent or mixture.
Where [8] appears, read: 40% peg 400, organic solvent or mixture.
Where [9] appears, read: 60% ethanol, organic solvent or mixture.
The mark [10] stands for this setting: 60% peg 400, organic solvent or mixture.
[11] abbreviates: 80% ethanol, organic solvent or mixture.
[12] abbreviates: 80% peg 400, organic solvent or mixture.
Where [13] appears, read: 100% ethanol, organic solvent or mixture.
[14] abbreviates: 100% triethanolamine, organic solvent or mixture.

For `CCc1cccc2c3c([nH]c12)[C@](CC)(CC(=O)O)OCC3` [S(+)-etodolac, S(+) 1,8-diethyl-1,3,4,9-tetrahydropyrano[3,4-b]indole-1-acetic acid], the solubility at 72 h was 0.073 mg/mL (≈ 0.254 mM) in “physchem” (0.001 n hcl, pH 3.24); 32.3 mg/mL (≈ 112 mM) in the data set “physchem” (0.001 n naoh, pH 8.5); 4.56 mg/mL (≈ 15.9 mM) in the data set “physchem” (0.01 m phosphate buffer, pH 6.4, aqueous buffer); 7.81 mg/mL (≈ 27.2 mM) in “physchem” (0.01 m phosphate buffer, pH 6.63, aqueous buffer); 11.6 mg/mL (≈ 40.4 mM) in the data set “physchem” (0.04 m borate buffer, pH 8.61, aqueous buffer); 15.3 mg/mL (≈ 53.1 mM) in “physchem” (0.04 m phosphate buffer, pH 8.59, aqueous buffer). Besides, the solubility at 72 h in the data set “physchem” (0.1 m acetate buffer, pH 4.03, aqueous buffer) was determined as 0.093 mg/mL (≈ 0.324 mM); in “physchem” (0.1 m acetate buffer, pH 4.41, aqueous buffer) it was 0.12 mg/mL (≈ 0.418 mM); in “physchem” (0.1 m phosphate buffer, pH 4.63, aqueous buffer), 0.193 mg/mL (≈ 0.672 mM); in “physchem” (0.1 m phosphate buffer, pH 4.98, aqueous buffer), 0.263 mg/mL (≈ 0.915 mM); in the data set “physchem” (0.1 m phosphate buffer, pH 5.82, aqueous buffer) it was 1.21 mg/mL (≈ 4.22 mM); in “physchem” (0.1 n hcl, pH 1.14) it was 0.08 mg/mL (≈ 0.278 mM). Besides, the solubility at 72 h stood at 0.08 mg/mL (≈ 0.278 mM) in the data set “physchem” (0.1 n hcl, pH 2.13); 29.4 mg/mL (≈ 102 mM) in the data set “physchem” (0.1 n naoh, pH 7.15); 58.8 mg/mL (≈ 205 mM) in the data set “physchem” (0.2 n naoh, pH 7.3); 39.4 mg/mL (≈ 137 mM) in the data set “physchem” (2% triethanolamine); 77.8 mg/mL (≈ 271 mM) in “physchem” (4% triethanolamine); 126 mg/mL (≈ 439 mM) in the data set “physchem” (6% triethanolamine). Moreover, the solubility at 72 h was determined as 235 mg/mL (≈ 816 mM) in the data set “physchem” (8% triethanolamine); 0.468 mg/mL (≈ 1.63 mM) in the data set “physchem” (10% dimethylacetamide); 295 mg/mL (≈ 1030 mM) in “physchem” (10% triethanolamine); 1.25 mg/mL (≈ 4.34 mM) in the data set “physchem” (20% dimethylacetamide); 0.412 mg/mL (≈ 1.43 mM) in “physchem” (setting [5]); 0.663 mg/mL (≈ 2.31 mM) in “physchem” (setting [6]). In addition, the solubility at 72 h in the data set “physchem” (30% dimethylacetamide) was 3.56 mg/mL (≈ 12.4 mM); in “physchem” (40% dimethylacetamide), 9.96 mg/mL (≈ 34.6 mM); in the data set “physchem” (setting [7]), 3.53 mg/mL (≈ 12.3 mM); in “physchem” (setting [8]), 3.06 mg/mL (≈ 10.6 mM); in the data set “physchem” (50% dimethylacetamide), 89.1 mg/mL (≈ 310 mM); in “physchem” (60% dimethylacetamide), 256 mg/mL (≈ 892 mM). Further, the solubility at 72 h in the data set “physchem” (setting [9]) was 43.7 mg/mL (≈ 152 mM); in the data set “physchem” (setting [10]), 16.3 mg/mL (≈ 56.6 mM); in “physchem” (80% dimethylacetamide), 419 mg/mL (≈ 1460 mM); in “physchem” (setting [11]), 126 mg/mL (≈ 439 mM); in the data set “physchem” (setting [12]), 643 mg/mL (≈ 2240 mM); in “physchem” (100% dimethylacetamide, organic solvent or mixture), 758 mg/mL (≈ 2640 mM). In addition, the solubility at 72 h in “physchem” (setting [13]) came to 284 mg/mL (≈ 987 mM); in the data set “physchem” (setting [14]) it was 81.7 mg/mL (≈ 284 mM). The same molecule returned a Solubility in the data set “physchem” (100% peg 400, 72 h) of 3460. mg/mL. Further, the “solubility in alcohols, dimethyl sulfoxide, propylene glycol and aqueous polyethylene glycols” value in data set [1] was “soluble”. The “share of the effects of etodolac due to the enantiomer” value in data set [2] is on record as “virtually all of the effects of etodolac are due to the S(+) enantiomer”.
For the molecule `CCc1cccc2c3c([nH]c12)[C@@](CC)(CC(=O)O)OCC3` [R(-) etodolac], the “certain purported adverse effects associated with the racemic mixture” value in data set [3] was “substantially reduces”.
Regarding `CCc1cccc2c3c([nH]c12)C(CC)(CC(=O)O)OCC3` (racemic) [etodolac, (±) 1,8-diethyl-1,3,4,9-tetrahydropyrano[3,4-b]indole-1-acetic acid], the solubility at 72 h in “physchem” (2% triethanolamine) amounted to 37.7 mg/mL (≈ 131 mM); in the data set “physchem” (4% triethanolamine), 75.9 mg/mL (≈ 264 mM); in the data set “physchem” (6% triethanolamine) it was 122 mg/mL (≈ 423 mM); in “physchem” (8% triethanolamine), 226 mg/mL (≈ 785 mM); in “physchem” (10% dimethylacetamide), 0.468 mg/mL (≈ 1.63 mM); in “physchem” (10% triethanolamine), 294 mg/mL (≈ 1020 mM). In addition, the solubility at 72 h in “physchem” (20% dimethylacetamide) was 0.956 mg/mL (≈ 3.33 mM); in the data set “physchem” (setting [5]), 0.279 mg/mL (≈ 0.971 mM); in “physchem” (setting [6]), 0.905 mg/mL (≈ 3.15 mM); in “physchem” (30% dimethylacetamide), 2.99 mg/mL (≈ 10.4 mM); in “physchem” (40% dimethylacetamide), 7.28 mg/mL (≈ 25.3 mM); in the data set “physchem” (setting [7]), 2.33 mg/mL (≈ 8.13 mM). The solubility at 72 h in the data set “physchem” (setting [8]) stood at 3.58 mg/mL (≈ 12.5 mM); in the data set “physchem” (50% dimethylacetamide) it was 34.9 mg/mL (≈ 122 mM); in “physchem” (60% dimethylacetamide), 52.1 mg/mL (≈ 181 mM); in “physchem” (setting [9]), 23.8 mg/mL (≈ 82.7 mM); in the data set “physchem” (setting [10]), 20.2 mg/mL (≈ 70.3 mM); in “physchem” (80% dimethylacetamide), 2630 mg/mL (≈ 9160 mM). Besides, the solubility at 72 h in the data set “physchem” (setting [11]) came out at 102 mg/mL (≈ 354 mM); in the data set “physchem” (setting [12]) it was 152 mg/mL (≈ 531 mM); in the data set “physchem” (setting [13]), 234 mg/mL (≈ 815 mM); in “physchem” (100% peg 400, organic solvent or mixture), 1730 mg/mL (≈ 6030 mM); in “physchem” (setting [14]), 102 mg/mL (≈ 355 mM). Further, the Solubility in the data set “physchem” (100% dimethylacetamide, 72 h) is on record as 4734. mg/mL. Further, the “solubility in alcohols, chloroform, dimethyl sulfoxide and aqueous polyethylene glycol” value in data set [4] is listed as “soluble”. In addition, the solubility in water result in data set [4] is given as “insoluble”. Besides, the “symptom relief for acute pain lasting” value is 4 to 5 h in the data set with acute pain (single dose of 200 mg) and 5 to 6 h with acute pain (single dose of 400 mg). Besides, the “activities in animal models” value in the data set on animal models is “exhibits anti-inflammatory, analgesic, and antipyretic activities”.
